# Data: patent US10105357B2, “Indication of antibiotic drugs for preparation of cancer inhibition pharmaceutical composition” (LAUNX BIOMEDICAL CO., LTD., priority 2014, dated 2018)
# Like-named read-outs stand apart in the source and are kept apart here.
# Assays:
# [1] = system: HI650 (Lung Adenocarcinoma); experiment: Cell viability analysis, lung cancer HI650; assay type: cell-based, human
# [2] = system: A549 (Lung Adenocarcinoma); experiment: Cell viability analysis, lung cancer A549; assay type: cell-based, human
# [3] = system: AGS (Gastric Adenocarcinoma); experiment: Cell viability analysis, gastric cancer AGS; assay type: cell-based, human
# [4] = system: MKN-45 (Gastric Adenocarcinoma); experiment: Cell viability analysis, gastric cancer MKN-45; assay type: cell-based, human
# [5] = system: HepG2 (Hepatocellular Carcinoma); experiment: Cell viability analysis, hepatic cancer HepG2; assay type: cell-based, human
# [6] = system: Hep3B (hepatocellular carcinoma); experiment: Cell viability analysis, hepatic cancer Hep3B; assay type: cell-based, human
# [7] = system: LoVo (Colorectal Adenocarcinoma); experiment: Cell viability analysis, colon cancer LoVo; assay type: cell-based, human
# [8] = system: A375 (Amelanotic Melanoma); experiment: Cell viability analysis, skin cancer A375; assay type: cell-based, human
# [9] = system: BCC (basal cell carcinoma); experiment: Cell viability analysis, skin cancer BCC; assay type: cell-based, human
# [10] = system: HeLa (Cervix Adenocarcinoma); experiment: Cell viability analysis, cervical cancer HeLa; assay type: cell-based, human
# [11] = system: C-33A (Cervical carcinoma); experiment: Cell viability analysis, cervical cancer C-33A; assay type: cell-based, human
# [12] = system: PC3 (p53−) (Prostate Adenocarcinoma); experiment: Cell viability analysis, prostate cancer PC3; assay type: cell-based, human
# [13] = system: TSGH-8301 (Urinary Bladder Carcinoma); experiment: Cell viability analysis, bladder cancer TSGH-8301; assay type: cell-based, human
# T24 = experiment: Cell viability analysis, bladder cancer T24; assay type: cell-based, human
# [14] = system: MCF7 (Mammary Gland, Adenocarcinoma); experiment: Cell viability analysis, breast cancer MCF7; assay type: cell-based, human
# [15] = system: MDA-MB-231 (Mammary Gland, Adenocarcinoma); experiment: Cell viability analysis, breast cancer MDA-MB-231; assay type: cell-based, human
# BxPC-3 = experiment: Cell viability analysis, pancreatic cancer BxPC-3; assay type: cell-based, human
# AsPC-1 = experiment: Cell viability analysis, pancreatic cancer AsPC-1; assay type: cell-based, human
# NIH: OVCAR-3 = experiment: Cell viability analysis, ovarian cancer NIH: OVCAR-3; assay type: cell-based, human
# TOV-21G = experiment: Cell viability analysis, ovarian cancer TOV-21G; assay type: cell-based, human
# [16] = system: SAS (Tongue squamous cell carcinoma); experiment: Cell viability analysis, tongue cancer SAS; assay type: cell-based, human
# U-2OS = experiment: Cell viability analysis, osteosarcoma U-2OS; assay type: cell-based, human
# [17] = system: 786-O (Renal adenocarcinoma); experiment: Cell viability analysis, renal cancer 786-O; assay type: cell-based, human
# [18] = system: HCT116 (p53+) (Colorectal Carcinoma)
structure (smiles),measurement,setting,value
CC[C@H](C)[C@H]1O[C@]2(CC[C@@H]1C)C[C@@H]1C[C@@H](C/C=C(\C)[C@@H](O[C@H]3C[C@H](OC)[C@@H](O[C@H]4C[C@H](OC)[C@@H](O)[C@H](C)O4)[C@H](C)O3)[C@@H](C)/C=C/C=C3\CO[C@@H]4[C@H](O)C(C)=C[C@@H](C(=O)O1)[C@]34O)O2 [Ivermectin],"The results of antibiotic drug inhibiting cancer cell lines (cell viability analysis), H1650","[1]; H1650, repeated experiment",50.2
same,"The results of antibiotic drug inhibiting cancer cell lines (cell viability analysis), A549","[2]; A549, repeated experiment",33.35
same,"The results of antibiotic drug inhibiting cancer cell lines (cell viability analysis), AGS","[3]; AGS, repeated experiment",79.82
same,"The results of antibiotic drug inhibiting cancer cell lines (cell viability analysis), MKN-45","[4]; MKN-45, repeated experiment",102.1
same,"The results of antibiotic drug inhibiting cancer cell lines (cell viability analysis), HepG2","[5]; HepG2, repeated experiment",65.3
same,"The results of antibiotic drug inhibiting cancer cell lines (cell viability analysis), Hep3B","[6]; Hep3B, repeated experiment",63.22
same,"The results of antibiotic drug inhibiting cancer cell lines (cell viability analysis), LoVo","[7]; LoVo, repeated experiment",53.26
same,"The results of antibiotic drug inhibiting cancer cell lines (cell viability analysis), A375","[8]; A375, repeated experiment",44.36
same,"The results of antibiotic drug inhibiting cancer cell lines (cell viability analysis), BCC","[9]; BCC, repeated experiment",33.64
same,"The results of antibiotic drug inhibiting cancer cell lines (cell viability analysis), HeLa","[10]; HeLa, repeated experiment",58.86
same,"The results of antibiotic drug inhibiting cancer cell lines (cell viability analysis), C-33A","[11]; C-33A, repeated experiment",85.05
same,"The results of antibiotic drug inhibiting cancer cell lines (cell viability analysis), PC-3","[12]; PC-3, repeated experiment",27.87
same,"The results of antibiotic drug inhibiting cancer cell lines (cell viability analysis), TSGH-8301","[13]; TSGH-8301, repeated experiment",63.74
same,"The results of antibiotic drug inhibiting cancer cell lines (cell viability analysis), T24","T24; T24, repeated experiment",101.7
same,"The results of antibiotic drug inhibiting cancer cell lines (cell viability analysis), MCF-7","[14]; MCF-7, repeated experiment",48.13
same,"The results of antibiotic drug inhibiting cancer cell lines (cell viability analysis), MDA-MB231","[15]; MDA-MB231, repeated experiment",83.03
same,"The results of antibiotic drug inhibiting cancer cell lines (cell viability analysis), BxPC-3","BxPC-3; BxPC-3, repeated experiment",65.76
same,"The results of antibiotic drug inhibiting cancer cell lines (cell viability analysis), AsPC-1","AsPC-1; AsPC-1, repeated experiment",41.75
same,"The results of antibiotic drug inhibiting cancer cell lines (cell viability analysis), NIH-OVCAR-3","NIH: OVCAR-3; NIH-OVCAR-3, repeated experiment",61.85
same,"The results of antibiotic drug inhibiting cancer cell lines (cell viability analysis), TOV-21G","TOV-21G; TOV-21G, repeated experiment",42.41
same,"The results of antibiotic drug inhibiting cancer cell lines (cell viability analysis), SAS","[16]; SAS, repeated experiment",41.52
same,"The results of antibiotic drug inhibiting cancer cell lines (cell viability analysis), U2OS","U-2OS; U2OS, repeated experiment",50.69
same,"The results of antibiotic drug inhibiting cancer cell lines (cell viability analysis), 786-O","[17]; 786-O, repeated experiment",55.69
same,viability,[18],62.7%
Cl.c1ccc([C@H]2CN3CCSC3=N2)cc1 [Levamisole Hydrochloride (Ergamisol)],"The results of antibiotic drug inhibiting cancer cell lines (cell viability analysis), H1650",[1],78.34
same,"The results of antibiotic drug inhibiting cancer cell lines (cell viability analysis), A549",[2],104.9
same,"The results of antibiotic drug inhibiting cancer cell lines (cell viability analysis), AGS",[3],120.5
same,"The results of antibiotic drug inhibiting cancer cell lines (cell viability analysis), MKN-45",[4],112.3
same,"The results of antibiotic drug inhibiting cancer cell lines (cell viability analysis), HepG2",[5],127.7
same,"The results of antibiotic drug inhibiting cancer cell lines (cell viability analysis), Hep3B",[6],121.1
same,"The results of antibiotic drug inhibiting cancer cell lines (cell viability analysis), LoVo",[7],100.7
same,"The results of antibiotic drug inhibiting cancer cell lines (cell viability analysis), A375",[8],113.9
same,"The results of antibiotic drug inhibiting cancer cell lines (cell viability analysis), BCC",[9],114.1
same,"The results of antibiotic drug inhibiting cancer cell lines (cell viability analysis), HeLa",[10],137
same,"The results of antibiotic drug inhibiting cancer cell lines (cell viability analysis), C-33A",[11],96.19
same,"The results of antibiotic drug inhibiting cancer cell lines (cell viability analysis), PC-3",[12],125.7
same,"The results of antibiotic drug inhibiting cancer cell lines (cell viability analysis), TSGH-8301",[13],106.8
same,"The results of antibiotic drug inhibiting cancer cell lines (cell viability analysis), T24",T24,92.87
same,"The results of antibiotic drug inhibiting cancer cell lines (cell viability analysis), MCF-7",[14],102.4
same,"The results of antibiotic drug inhibiting cancer cell lines (cell viability analysis), MDA-MB231",[15],102.7
same,"The results of antibiotic drug inhibiting cancer cell lines (cell viability analysis), BxPC-3",BxPC-3,68.02
same,"The results of antibiotic drug inhibiting cancer cell lines (cell viability analysis), AsPC-1",AsPC-1,85.72
same,"The results of antibiotic drug inhibiting cancer cell lines (cell viability analysis), NIH-OVCAR-3",NIH: OVCAR-3,105.6
same,"The results of antibiotic drug inhibiting cancer cell lines (cell viability analysis), TOV-21G",TOV-21G,83.45
same,"The results of antibiotic drug inhibiting cancer cell lines (cell viability analysis), SAS",[16],89.56
same,"The results of antibiotic drug inhibiting cancer cell lines (cell viability analysis), U2OS",U-2OS,79.87
same,"The results of antibiotic drug inhibiting cancer cell lines (cell viability analysis), 786-O",[17],93.24
same,viability,[18],116%
O=C(Nc1ccc([N+](=O)[O-])cc1Cl)c1cc(Cl)ccc1O [Niclosamide (Niclocide)],"The results of antibiotic drug inhibiting cancer cell lines (cell viability analysis), H1650",[1],36.77
same,"The results of antibiotic drug inhibiting cancer cell lines (cell viability analysis), A549",[2],16.68
same,"The results of antibiotic drug inhibiting cancer cell lines (cell viability analysis), AGS",[3],23.05
same,"The results of antibiotic drug inhibiting cancer cell lines (cell viability analysis), MKN-45",[4],50.74
same,"The results of antibiotic drug inhibiting cancer cell lines (cell viability analysis), HepG2",[5],37.55
same,"The results of antibiotic drug inhibiting cancer cell lines (cell viability analysis), Hep3B",[6],60.79
same,"The results of antibiotic drug inhibiting cancer cell lines (cell viability analysis), LoVo",[7],41.95
same,"The results of antibiotic drug inhibiting cancer cell lines (cell viability analysis), A375",[8],20.26
same,"The results of antibiotic drug inhibiting cancer cell lines (cell viability analysis), BCC",[9],30.66
same,"The results of antibiotic drug inhibiting cancer cell lines (cell viability analysis), HeLa",[10],25.4
same,"The results of antibiotic drug inhibiting cancer cell lines (cell viability analysis), C-33A",[11],39.49
same,"The results of antibiotic drug inhibiting cancer cell lines (cell viability analysis), PC-3",[12],42.84
same,"The results of antibiotic drug inhibiting cancer cell lines (cell viability analysis), TSGH-8301",[13],35.94
same,"The results of antibiotic drug inhibiting cancer cell lines (cell viability analysis), T24",T24,26.49
same,"The results of antibiotic drug inhibiting cancer cell lines (cell viability analysis), MCF-7",[14],33.36
same,"The results of antibiotic drug inhibiting cancer cell lines (cell viability analysis), MDA-MB231",[15],37.69
same,"The results of antibiotic drug inhibiting cancer cell lines (cell viability analysis), BxPC-3",BxPC-3,41.93
same,"The results of antibiotic drug inhibiting cancer cell lines (cell viability analysis), AsPC-1",AsPC-1,40.72
same,"The results of antibiotic drug inhibiting cancer cell lines (cell viability analysis), NIH-OVCAR-3",NIH: OVCAR-3,54.68
same,"The results of antibiotic drug inhibiting cancer cell lines (cell viability analysis), TOV-21G",TOV-21G,17.59
same,"The results of antibiotic drug inhibiting cancer cell lines (cell viability analysis), SAS",[16],23.94
same,"The results of antibiotic drug inhibiting cancer cell lines (cell viability analysis), U2OS",U-2OS,26.74
same,"The results of antibiotic drug inhibiting cancer cell lines (cell viability analysis), 786-O",[17],25.52
same,viability,[18],23.9%
"CC(=O)Oc1ccccc1C(=O)Nc1ncc([N+](=O)[O-])s1 [Nitazoxanide (Alinia, Annita)]","The results of antibiotic drug inhibiting cancer cell lines (cell viability analysis), H1650",[1],85.86
same,"The results of antibiotic drug inhibiting cancer cell lines (cell viability analysis), A549",[2],95.57
same,"The results of antibiotic drug inhibiting cancer cell lines (cell viability analysis), AGS",[3],99.04
same,"The results of antibiotic drug inhibiting cancer cell lines (cell viability analysis), MKN-45",[4],97.28
same,"The results of antibiotic drug inhibiting cancer cell lines (cell viability analysis), HepG2",[5],107.5
same,"The results of antibiotic drug inhibiting cancer cell lines (cell viability analysis), Hep3B",[6],106.8
same,"The results of antibiotic drug inhibiting cancer cell lines (cell viability analysis), LoVo",[7],94.76
same,"The results of antibiotic drug inhibiting cancer cell lines (cell viability analysis), A375",[8],94.2
same,"The results of antibiotic drug inhibiting cancer cell lines (cell viability analysis), BCC",[9],76
same,"The results of antibiotic drug inhibiting cancer cell lines (cell viability analysis), HeLa",[10],84.93
same,"The results of antibiotic drug inhibiting cancer cell lines (cell viability analysis), C-33A",[11],103.9
same,"The results of antibiotic drug inhibiting cancer cell lines (cell viability analysis), PC-3",[12],90.27
same,"The results of antibiotic drug inhibiting cancer cell lines (cell viability analysis), TSGH-8301",[13],87.18
same,"The results of antibiotic drug inhibiting cancer cell lines (cell viability analysis), T24",T24,76.47
same,"The results of antibiotic drug inhibiting cancer cell lines (cell viability analysis), MCF-7",[14],79.28
same,"The results of antibiotic drug inhibiting cancer cell lines (cell viability analysis), MDA-MB231",[15],91.23
same,"The results of antibiotic drug inhibiting cancer cell lines (cell viability analysis), BxPC-3",BxPC-3,89.5
same,"The results of antibiotic drug inhibiting cancer cell lines (cell viability analysis), AsPC-1",AsPC-1,84.09
same,"The results of antibiotic drug inhibiting cancer cell lines (cell viability analysis), NIH-OVCAR-3",NIH: OVCAR-3,104.5
same,"The results of antibiotic drug inhibiting cancer cell lines (cell viability analysis), TOV-21G",TOV-21G,62.56
same,"The results of antibiotic drug inhibiting cancer cell lines (cell viability analysis), SAS",[16],78.89
same,"The results of antibiotic drug inhibiting cancer cell lines (cell viability analysis), U2OS",U-2OS,83.33
same,"The results of antibiotic drug inhibiting cancer cell lines (cell viability analysis), 786-O",[17],44.2
same,viability,[18],98.4%
